A short description of series [1]: In vitro cytotoxicity testing (3T3 NRU test). The following applies: mouse. The series is classed as cell-based. As for the experimental part: The newly synthesized compounds were studied for cytotoxicity by standard method (3T3 NRU-test). The cells were incubated with the test substances at a concentration of 30 to 4000 μM for 24 h. The cytotoxicity expressed, in % relative to the negative control was determined.
The cytotoxicity testing was performed as described by Borenfreund et al. and the latest modification of the validated BALB/3T3 clone A31 Neutral Red Uptake Assay (3T3 NRU test) for cytotoxicity testing. BALB/3T3, clone A31 mouse embryo cells were grown as monolayer in 75 cm^2 tissue culture flasks in DMEM high-glucose (4.5 g/L), supplemented with 10% FBS and antibiotics (Sigma-Aldrich, Schnelldorf, Germany). Cultures were maintained at 37.5 °C in a humidified atmosphere under 5% CO2. Cells were plated at a density of 1 × 10^4 cells in 100 μL culture medium in each well of 96-well flat-bottomed microplates (Biologix, Lenexa, KS, USA) and allowed to adhere for 24 h. The test compounds, dissolved in DMSO and diluted in culture medium to concentration range 30 to 4000 μM were then added and the cell cultures were incubated for additional 24 h. […] After treatment with Neutral Red medium, washing and treatment with the Ethanol/Acetic acid solution (NR Desorb), the absorption was measured on a TECAN microplate reader (TECAN, Grödig, Austria) at wavelength 540 nm.

The next series concerns MCF-7 cells. The series is classed as cell-based, human. As for the experimental part: (§1) The compounds were studied for antiproliferative activity by standard MTT dye reduction assay. Cell cultures from different cell line types (MCF-10A, MCF-7 and MDA-MB-231) were incubated with the test substances at a concentration of 15 to 2000 μM for 72 h. The antiproliferative activity expressed in % relative to the negative control was determined. The obtained results are shown on Figure 2. MCF-10A is a reliable model for normal human mammary epithelial cells, which serves as a control in experiments to determine antitumor activity. The IC50 values, found in MCF-10A, are used to calculate a selective index (SI), which assesses the potential of a substance to be used as an antitumor agent. We used the following formula to calculate the selective index SI = IC50 of MCF-10A / IC50 of tumor cells. The highest selective index with respect to MCF-7 is shown by the substances: Si3 (SI = 8.35), Si11 (SI = 2.62) and Si1 (SI = 1.24).
(§2) The antiproliferative activity testing was performed on cell cultures from several human cell lines using the standard MTT-dye reduction assay, described by Mosmann. The assay is based on the metabolism of the tetrazolium salt MTT to insoluble formazan by mitochondrial reductases. The formazan concentration can be determined spectrophotometrically. The measured absorption is an indicator of cell viability and metabolic activity. Cell lines: mammary gland type A adenocarcinoma ER+, PR+, HER2- (MCF-7), triple-negative breast cancer ER-, PR-, HER2- (MDA-MB-231) and breast, non-tumorigenic epithelial cell line (MCF-10A) were used in experiments. The cell lines were routinely grown as monolayers in 75 cm^2 tissue culture flasks under standard conditions (described above). Cells were plated at a density of 1 × 10^3 cells in 100 µL in each well of 96-well flat-bottomed microplates and allowed to adhere for 24 h before treatment with test compounds. A concentration range from 15 to 2000 μM was applied for 72 h. The formazan absorption was registered using a microplate reader at λ = 540 nm. Antiproliferative activities were expressed as IC50 values (concentrations required for 50% inhibition of cell growth), calculated using non-linear regression analysis (GraphPad Software, San Diego, CA, USA).

Another series concerns MCF-10A cells. The series is classed as cell-based, human. The following applies: 72 h. As for the experimental part: as §1, §2
The subject of a further series is MDA-MB-231 cells. The series is classed as cell-based, human. The conditions noted are these: 72 h. The procedure:
as §1, §2

A further series relates to Escherichia coli K12 407. The series is classed as cell-based. The conditions noted are these: agar diffusion, E. coli K12 407. As for the experimental part: Antibacterial properties of the obtained new peptides and their conjugates were tested against E. coli K12 407 strain. Antibacterial activity of tested compounds was proven through appear of free zone around the loaded disk-paper by means of agar-diffusion method (Figure 3).
All newly synthesized derivatives of (KLAKLAK)2-NH2 at two concentrations 10 μM and 20 μM, were tested against facultative anaerobic gram-negative Esherichia coli NBIMCC K12 407. The strains were obtained from the culture collection of Bulgarian National Bank for Industrial Microorganisms and Cell Cultures (Sofia, Bulgaria) and were cultured in Luria-Bertani (LB) medium (Mumbai, India). The microbiological tests were performed using the agar diffusion method. The overnight pure cultures from tested strains were prepared in liquid LB-medium. A single colony was used for inoculating the liquid LB medium in order to maintain initial bacterial concentration of 1 × 10^7 cfu/mL. 100 µL of bacterial suspensions were seeded on agar plates with solid LB-medium. After 30 min, sterile paper disks 6 mm in diameter were soaked with tested samples in amount of 6 µL and placed on the agar petri dishes surface. The plates were incubated for 24 h at 37 °C. The appeared inhibition zones and their size were measured. The sterile paper disks soaked with water was used as blank. Mean values were calculated by performing the experiments in triplicates.
A general note: A growth-free zone around the sample is the usual read-out of agar diffusion tests.

Molecules are shown by their SMILES. Residues, ends and D or L forms follow the SMILES beside them. *: point of attachment. Caffeoyl = O=C(/C=C/c1ccc(O)c(O)c1)*

The term IC50 denotes the point on the concentration scale where inhibition reaches its midpoint. A word on the melting point: it is the temperature, or range, at which the solid turns liquid. For the compound `CC(C)C[C@H](NC(=O)[C@H](CCCCN)NC(=O)/C=C/c1ccc(O)c(O)c1)C(=O)N[C@@H](C)C(=O)N[C@@H](CCCCN)C(=O)N[C@@H](CC(C)C)C(=O)N[C@@H](C)C(=O)N[C@@H](CCCCN)C(N)=O` [Si8, Caf-KLAKLAK-NH2] (Caffeoyl-KLAKLAK-NH2), the melting point amounted to 154 °C. Moreover, half-maximal inhibition in series [1] (IC50 at 24 h) required 710 ± 11.9 µM. This compound came in with a 50% inhibitory concentration (IC50) in the series with MCF-7 cells (72 h) of 129 ± 8.03 µM. For the same compound, the “selectivity with respect to the studied tumor cell lines (in words)” value in the series on MCF-7 cells (MCF-7 and MDA-MB-231 versus MCF-10A) is “do not show selectivity”. In the series with MCF-10A cells, this compound returned an IC50 of 136 ± 7.09 µM. Besides, the half-maximal inhibitory concentration (IC50) in the series with MDA-MB-231 cells worked out at 514 ± 26.8 µM. In addition, the “antibacterial effect, zones free of microbial growth (in words)” value in the series on Escherichia coli K12 407 is “clear zones free of microbial growth”.

For the origin of these results see paper PMC7915940, “Synthesis, Antitumor and Antibacterial Studies of New Shortened Analogues of (KLAKLAK)2-NH2 and Their Conjugates Containing Unnatural Amino Acids” (Molecules, 2021).
